Test results reported in patent US20140147431A1, “Compositions and Methods for Modulating Desnutrin-Mediated Adipocyte Lipolysis” (The Regents of the University of California, priority 2010, published 2014).

What was measured:
[1] = tested on: HEK 293 cells transfected with wild type desnutrin-HA-GFP; experiment: Glycerol release (lipolysis) from oleate loaded HEK 293 cells transfected with wild type desnutrin-HA-GFP; assay type: cell-based; conditions: treated with AICAR vs without
Procedure: (§1) Gonadal fat pads or BAT from overnight fasted mice were cut into 50 mg samples and incubated at 37° C. without shaking in […] of Krebs-Ringer buffer (12 mM HEPES, 121 mM NaCl, 4.9 mM KCl, 1.2 mM MgSO4 and 0.33 mM CaCl2) containing 2% fatty acid free bovine serum albumin (BSA) and 0.1% glucose with or without 10 μM isoproterenol. Fatty acid (FA) and glycerol release were measured in aliquots from incubation buffer using the NEFA C Kit (Wako) and Free Glycerol Reagent (Sigma), respectively. […] Glycerol and fatty acid were determined using the kits described above.
(§2) The role of AMPK in lipolysis is controversial, with several reporting AMPK stimulates lipolysis and others showing it inhibits lipolysis, via phosphorylation of HSL at S563 (Daval et al., 2005; Koh et al., 2007; Lage et al., 2008; Yin et al., 2003). To determine the effect of AMPK specifically on desnutrin-mediated Lipolysis, oleate loaded HEK 293 cells, transfected with wild type desnutrin-HA-GFP, mutant S406A-desnutrin-HA-GFP or GFP control, were treated with the cell-permeable AMPK-activator, 5-amino-4-imidazolecarboxamide riboside (AICAR), and lipolysis was determined by measuring glycerol release. […] To test the effect of AMPK on lipolysis in vivo, AICAR was administered intraperitoneally to flox/flox and desnutrin-ASKO mice and then measured serum FA levels. […]

[2] = tested on: AMPK; experiment: Effect of AMPK activation on lipolysis in vivo: serum FA levels after intraperitoneal AICAR; design: species or system mice; conditions: five hours after injection
Procedure: Fasting serum triglycerides and FAs were analyzed with Infinity Triglyceride reagent (Thermo Trace) and NEFA C kit (Wako), respectively. Serum insulin, were determined using enzyme-linked immunosorbent assay kits (Alpco).
The role of AMPK in lipolysis is controversial, with several reporting AMPK stimulates lipolysis and others showing it inhibits lipolysis, via phosphorylation of HSL at S563 (Daval et al., 2005; Koh et al., 2007; Lage et al., 2008; Yin et al., 2003). To determine the effect of AMPK specifically on desnutrin-mediated Lipolysis, oleate loaded HEK 293 cells, transfected with wild type desnutrin-HA-GFP, mutant S406A-desnutrin-HA-GFP or GFP control, were treated with the cell-permeable AMPK-activator, 5-amino-4-imidazolecarboxamide riboside (AICAR), and lipolysis was determined by measuring glycerol release. […] To test the effect of AMPK on lipolysis in vivo, AICAR was administered intraperitoneally to flox/flox and desnutrin-ASKO mice and then measured serum FA levels. […] Therefore, AMPK phosphorylates desnutrin to increase lipolysis and promote FA oxidation in adipocytes.
FIGS. 3A-N. Desnutrin ablation converts BAT to WAT, and phosphorylation of desnutrin by AMPK increases lipolysis. […] I) FA oxidation, measured by ^14CO2 production from [U^14C] palmitate, from isolated brown adipocytes (left) and white adipocytes (right) from flox/flox and desnutrin-ASKO mice (n=4). […]

[3] = tested on: HEK 293 cells transfected with mutant S406A-desnutrin-HA-GFP; experiment: Glycerol release (lipolysis) from oleate loaded HEK 293 cells transfected with mutant S406A-desnutrin-HA-GFP; assay type: cell-based; conditions: treated with AICAR vs without
Procedure: as §1, §2

[4] = target: T1, β3 adrenergic receptors (Mus musculus, UniProt P25962); experiment: Oxygen consumption (VO2) by indirect calorimetry after injection of β3-agonist; assay type: in vivo, mice; conditions: intraperitoneal injection 1 mg/kg body weight
T1 construct: endogenous in cells; host or cells: living flox/flox and desnutrin-ASKO mice (whole animal)
T1 sequence (P25962 whole entry): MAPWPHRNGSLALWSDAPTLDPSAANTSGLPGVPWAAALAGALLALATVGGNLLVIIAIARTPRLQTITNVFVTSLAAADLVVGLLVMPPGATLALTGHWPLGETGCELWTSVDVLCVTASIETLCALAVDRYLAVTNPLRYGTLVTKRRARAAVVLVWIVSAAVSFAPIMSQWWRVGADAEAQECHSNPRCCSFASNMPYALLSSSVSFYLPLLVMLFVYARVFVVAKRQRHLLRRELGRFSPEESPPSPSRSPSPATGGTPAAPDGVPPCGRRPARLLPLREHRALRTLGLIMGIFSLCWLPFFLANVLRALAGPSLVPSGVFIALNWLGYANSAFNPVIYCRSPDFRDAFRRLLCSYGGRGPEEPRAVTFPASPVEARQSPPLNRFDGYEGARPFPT
Procedure: Oxygen consumption (VO2) was measured using the Comprehensive Laboratory Animal Monitoring System (CLAMS; Columbus Instruments). Data were normalized to body weights. Body temperatures were assessed in 25 wk-old male mice using a RET-3 rectal probe for mice (Physitemp). […] was intraperitoneally injected into mice at 1 mg/kg body weight.
Oxygen consumption (VO2) was measured using the Comprehensive Laboratory Animal Monitoring System (CLAMS: Columbus Instruments). Data were normalized to body weights. Body temperatures were assessed using a RET-3 rectal probe for mice (Physitemp).
Since lipolysis and FAs are critical for thermogenesis, it was predicted that the severely blunted lipolysis in desnutrin-ASKO mice, would lead to impaired thermogenesis. Desnutrin-ASKO mice and flox/flox littermates were subjected to cold stress. […] To test this, a β3-agonist, […], was injected into desnutrin-ASKO and flox/flox mice and oxygen consumption was monitored.
FIGS. 2A-G. Decreased lipolysis in desnutrin-ASKO mice results in impaired thermogenesis and energy expenditure. […] F) Oxygen consumption rate (VO2) measured through indirect calorimetry. G) Oxygen consumption rate (VO2) measured through indirect calorimetry after intraperitoneal injection of CL316243. […]

[5] = target: wild type desnutrin-HA-GFP (murine) (UniProt Q8BJ56); experiment: cell-based or functional assay
Chain of wild type desnutrin-HA-GFP (murine) (Q8BJ56 whole entry): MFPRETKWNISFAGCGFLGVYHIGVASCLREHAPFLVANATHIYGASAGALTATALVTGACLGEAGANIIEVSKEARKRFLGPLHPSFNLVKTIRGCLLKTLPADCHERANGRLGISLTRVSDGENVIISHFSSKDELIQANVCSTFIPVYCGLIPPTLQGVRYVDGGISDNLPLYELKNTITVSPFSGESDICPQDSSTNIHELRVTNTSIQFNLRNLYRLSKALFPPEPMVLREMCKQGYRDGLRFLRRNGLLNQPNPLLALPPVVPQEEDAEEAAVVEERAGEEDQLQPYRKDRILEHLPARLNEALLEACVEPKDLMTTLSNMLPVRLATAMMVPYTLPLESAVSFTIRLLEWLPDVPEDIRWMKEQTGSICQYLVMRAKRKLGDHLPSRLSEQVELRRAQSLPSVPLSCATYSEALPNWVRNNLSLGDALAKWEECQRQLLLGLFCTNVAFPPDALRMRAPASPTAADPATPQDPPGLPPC

With `NC(=O)c1ncn([C@@H]2O[C@H](CO)[C@@H](O)[C@H]2O)c1N` [AICAR, 5-amino-4-imidazolecarboxamide riboside] the “increase in glycerol release” value [1] was 1.8 fold, the “serum FA levels” value ([2]; desnutrin-ASKO mice) was “serum FA levels were unchanged” and the “serum FA levels” value ([2]; flox/flox mice) was “increased serum FA levels”. The “increase in glycerol release” value [3] was “failed to do so”.

With `C[C@H](Cc1ccc2c(c1)OC(C(=O)O)(C(=O)O)O2)NC[C@H](O)c1cccc(Cl)c1` [CL31624] the oxygen consumption ([4]; desnutrin-ASKO mice) was “no change in oxygen consumption” and the “metabolic rate as indicated by oxygen consumption” value ([4]; flox/flox mice) was “drastic increase in their metabolic rate”.

For “AMPK of HEK 293 cells, activated by AICAR”, the glycerol release from oleate loaded HEK 293 cells treated with AICAR [5] was 1.8 fold.
